Numbered stars: 1 amine (or outer) side, 2 acyl side, 3 side chain; on linkers, the order of the positions; unused ones are H or OH. Square brackets hold non-standard residues; d marks the D form. Side chains are listed from the residue outwards. Peptide text beside a SMILES is read from it. * marks the point of attachment. C20 diacid = O=C(O)CCCCCCCCCCCCCCCCCCC(=O)*; γGlu = O=C(O)[C@H](CCC(=O)[*:2])N[*:1]; 1Nal = N[C@@H](Cc1cccc2ccccc12)C(=O)O; AEEA = NCCOCCOCC(=O)O; Aib = CC(C)(N)C(=O)O
Assays:
human GIP-R = target: T1, human GIP-R (Homo sapiens, UniProt P48546); assay: Functional hGIP-R cAMP assay in HEK-293 clonal cells; settings: HEK293, read-out: Human GIP-R Emax
T1 sequence (P48546 22-466): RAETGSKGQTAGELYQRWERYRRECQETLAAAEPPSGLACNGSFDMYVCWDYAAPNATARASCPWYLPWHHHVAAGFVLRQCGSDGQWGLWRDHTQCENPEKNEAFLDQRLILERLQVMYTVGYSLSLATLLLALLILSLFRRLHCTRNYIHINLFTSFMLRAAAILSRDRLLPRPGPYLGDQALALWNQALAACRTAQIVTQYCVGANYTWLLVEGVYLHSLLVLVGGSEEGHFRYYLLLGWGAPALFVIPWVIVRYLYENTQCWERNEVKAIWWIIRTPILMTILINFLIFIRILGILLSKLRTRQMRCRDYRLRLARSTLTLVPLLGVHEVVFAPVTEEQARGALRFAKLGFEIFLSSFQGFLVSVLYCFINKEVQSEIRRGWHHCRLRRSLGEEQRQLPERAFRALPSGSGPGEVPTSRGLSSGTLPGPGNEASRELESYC
Method: (§1) After an incubation of 60 minutes at room temperature, the resulting increase in intracellular cAMP is quantitatively determined using the CisBio cAMP Dynamic 2 HTRF Assay Kit (Bedford, Mass.). Briefly, cAMP levels within the cell are detected by adding the cAMP-d2 conjugate in cell lysis buffer (20 μl) followed by the antibody anti-cAMP-Eu^3+-Cryptate, also in cell lysis buffer (20 μl). The resulting competitive assay is incubated for at least 60 minutes at room temperature, then detected using a PerkinElmer Envision® instrument with excitation at 320 nm and emission at 665 nm and 620 nm Envision units (emission at 665 nm/620 nm*10,000) are inversely proportional to the amount of cAMP present and are converted to nM cAMP per well using a cAMP standard curve. […] A relative EC50 value and percent top (Emax) is derived by non-linear regression analysis using the percent maximal response versus the concentration of the compound of the present invention, fitted to a four-parameter logistic equation.

[1] = Pharmacokinetics in cynomolgus monkeys; format: in vivo; settings: cynomolgus monkey, plasma, single SC 0.2 mg/kg, male monkeys, n = 2
Method: The compounds are administered by a single intravenous or subcutaneous dose (0.2 mg/kg) in 20 mM citrate buffer (pH 7.0) at a volume of 0.21 ml/kg. Blood is collected from each animal at 2, 4, 8, 12, 24, 48, 72, 96, 120, 144, 168, 204, 240, and 312 hours post-dosage. The plasma concentrations of compounds of the present invention are determined by a LC/MS method. Briefly, a compound of the present invention is extracted from 100% Monkey plasma sample (50 μl) diluted with 1×PBS (150 μl) and mixed with N-butanol (400 μl). Three distinct liquid layers are formed with the compound located in the top layer. A volume of 200 μl is transferred to a v-bottom 96-well plate, dried down using heated Nitrogen gas and reconstituted with 100 μl of 30% acetonitrile/0.1% formic acid. 20 μl of the reconstituted sample is injected onto a Supelco Analytical Discovery bio wide C5 3 μm column. The column effluent is directed into a Thermo Q-Exactive mass spectrometer for detection and quantitation.

Human GCGR = Human GCGR (Homo sapiens, UniProt P47871); assay: Functional hGCGR cAMP assay in HEK-293 clonal cells
human GLP-1R = target: T2, human GLP-1R (Homo sapiens, UniProt P43220); assay: Functional hGLP-1R cAMP assay in HEK-293 clonal cells; format: cell-based; settings: HEK293; percent of maximal response of hGLP-1(7-36)NH2
T2 construct: expressed in transfected cells; host or cells: 293HEK, Hygromycin-selected; crude plasma membranes
T2 sequence (P43220 24-463): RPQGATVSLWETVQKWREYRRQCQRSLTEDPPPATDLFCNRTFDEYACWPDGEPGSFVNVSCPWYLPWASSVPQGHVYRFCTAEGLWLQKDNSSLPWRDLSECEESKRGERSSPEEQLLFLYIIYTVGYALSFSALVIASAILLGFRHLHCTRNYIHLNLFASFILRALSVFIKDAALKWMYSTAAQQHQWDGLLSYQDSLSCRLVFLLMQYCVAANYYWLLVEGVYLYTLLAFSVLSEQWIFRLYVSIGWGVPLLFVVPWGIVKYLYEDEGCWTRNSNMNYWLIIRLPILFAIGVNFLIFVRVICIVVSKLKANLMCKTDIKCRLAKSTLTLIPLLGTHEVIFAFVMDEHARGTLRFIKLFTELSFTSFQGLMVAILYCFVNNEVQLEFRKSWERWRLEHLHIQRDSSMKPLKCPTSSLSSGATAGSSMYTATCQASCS
Method: as §1

Chain of Human GCGR (P47871 26-477): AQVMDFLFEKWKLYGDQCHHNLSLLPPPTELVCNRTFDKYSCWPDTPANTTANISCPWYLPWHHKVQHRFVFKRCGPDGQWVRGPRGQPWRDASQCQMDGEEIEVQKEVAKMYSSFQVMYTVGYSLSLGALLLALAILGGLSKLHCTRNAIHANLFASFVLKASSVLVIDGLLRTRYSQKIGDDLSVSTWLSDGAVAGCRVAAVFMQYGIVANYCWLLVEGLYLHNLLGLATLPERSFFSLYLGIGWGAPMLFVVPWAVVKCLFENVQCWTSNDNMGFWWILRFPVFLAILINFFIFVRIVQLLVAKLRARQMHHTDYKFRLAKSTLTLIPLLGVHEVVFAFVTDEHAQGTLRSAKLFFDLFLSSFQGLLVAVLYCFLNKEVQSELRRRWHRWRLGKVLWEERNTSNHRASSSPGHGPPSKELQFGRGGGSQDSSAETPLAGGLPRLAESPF

CC[C@H](C)[C@H](NC(=O)[C@H](CC(C)C)NC(=O)[C@H](Cc1c[nH]c2ccccc12)NC(=O)[C@H](CCC(N)=O)NC(=O)[C@@H](NC(=O)[C@H](Cc1cccc2ccccc12)NC(=O)[C@H](C)NC(=O)[C@H](CCCCNC(=O)COCCOCCNC(=O)COCCOCCNC(=O)CC[C@H](NC(=O)CC[C@H](NC(=O)CCCCCCCCCCCCCCCCCCC(=O)O)C(=O)O)C(=O)O)NC(=O)[C@H](CCC(N)=O)NC(=O)[C@H](C)NC(=O)[C@@H](NC(=O)[C@H](CCCCN)NC(=O)[C@H](CC(=O)O)NC(=O)[C@H](CC(C)C)NC(=O)C(C)(C)NC(=O)[C@@H](NC(=O)[C@H](CO)NC(=O)[C@H](Cc1ccc(O)cc1)NC(=O)[C@H](CC(=O)O)NC(=O)[C@H](CO)NC(=O)[C@@H](NC(=O)[C@H](Cc1ccccc1)NC(=O)[C@@H](NC(=O)CNC(=O)[C@H](CCC(=O)O)NC(=O)C(C)(C)NC(=O)[C@@H](N)Cc1ccc(O)cc1)[C@@H](C)O)[C@@H](C)O)[C@@H](C)CC)[C@@H](C)CC)C(C)C)C(=O)N[C@@H](C)C(=O)NCC(=O)NCC(=O)N1CCC[C@H]1C(=O)N[C@@H](CO)C(=O)N[C@@H](CO)C(=O)NCC(=O)N[C@@H](C)C(=O)N1CCC[C@H]1C(=O)N1CCC[C@H]1C(=O)N1CCC[C@H]1C(=O)N[C@@H](CO)C(N)=O [Example 2] (H-Y[Aib]EGTFTSDYSI[Aib]LDKIAQK([AEEA-AEEA-γGlu-γGlu-C20 diacid])A[1Nal]VQWLIAGGPSSGAPPPS-NH2)
Emax (human GIP-R): 94.7 ± 2% | CL/F [1]: 1.2 mL/h/kg | Cmax [1]: 2100 ng/mL | AUC(0-inf) ([1]; read-out: Mean AUC0-inf): 173 µg·h/mL | half-life ([1]; read-out: Mean T1/2 (converted)): 43 h | Tmax ([1]; read-out: Mean Tmax): 24 h | EC50 (Human GCGR): > 1 µM | Emax (human GLP-1R): 98.2 ± 5.5%

Source: patent US9474780B2, “GIP and GLP-1 co-agonist compounds” (Eli Lilly and Company, priority 2015, dated 2016)
